# According to US20140248291A1, “Modulation of Cellular Migration” (THE UAB RESEARCH FOUNDATION, priority 2011, published 2014):
# Columns and labels:
# B2R = target: T1, B2R (Homo sapiens, UniProt P30411); test: calcium imaging (Fura-2), BK response with B2R antagonists; type: cell-based; details: BK in presence of the B2R antagonist; for average peak of Ca2+ response: p<0.001 vs BK
# T1 construct: endogenous in cells; host or cells: D54-MG / D54-MG-GFP human glioma cells
# T1 sequence (P30411 1-391): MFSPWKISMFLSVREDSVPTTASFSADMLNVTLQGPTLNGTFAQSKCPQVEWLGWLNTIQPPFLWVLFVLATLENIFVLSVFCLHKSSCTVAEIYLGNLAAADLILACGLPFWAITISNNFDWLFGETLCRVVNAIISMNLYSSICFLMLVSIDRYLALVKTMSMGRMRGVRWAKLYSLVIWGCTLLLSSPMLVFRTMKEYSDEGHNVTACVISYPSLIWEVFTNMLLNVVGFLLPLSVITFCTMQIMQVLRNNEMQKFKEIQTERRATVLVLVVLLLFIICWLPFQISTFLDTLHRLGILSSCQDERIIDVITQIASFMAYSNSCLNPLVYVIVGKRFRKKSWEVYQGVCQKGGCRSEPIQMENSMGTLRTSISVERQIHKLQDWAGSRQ
# Experimental: D54-MG cells were plated on 35-mm glass bottom dishes (MatTek, Corp., Ashland, Mass.) at ˜100×10^3 per dish and cultured for 2 days. pTRIPZ transfected cells, after stable selection, were plated at a density of ˜20×10^3 per dish and treated with […] doxycycline for 4 to 5 days to allow for sufficient protein knockdown. All cells were loaded in serum-free culture medium for 45 min with the ratiometric Ca^2+ dye Fura-2-acetoxymethylester (5 μmol/L; TEFLABS, Austin, Tex.) reconstituted in 20% wiv pluronic acid in DMSO (Invitrogen, Carlsbad, Calif.). Cells were rinsed with serum-free medium and allowed to rest in 7% serum-containing medium for 45 min at 37° C. The glass-bottom dishes were placed in an environmental chamber mounted on an inverted microscope. Cells were allowed to equilibrate in the chamber for 15 min before calcium images were collected. Following equilibration, recordings were obtained with an Olympus Disk Spinning Unit (DSU) fluorescent imaging microscope where cells were alternately excited at 340 and 380 nm using an x-cite illumination light source. Emitted light was collected at >520 nm. Images were digitized online using Slidebook 4.2 software (Intelligent Imaging Innovations, Denver, Colo.), and 340:380 nm ratios were obtained every 15 seconds. Following a 5 minute baseline recording every 15 seconds, BK was applied to the cells and imaging continued every 15 seconds for 30 or 60 minutes. In a subset of experiments, BK antagonists, HOE-140 and Bradyzide were applied to the cells. These experiments were repeated at least three times and data were pooled for statistical analysis.
# Glioma cells respond to environmental clues as they invade the brain. It has been previously shown that the exposure of glioma cells to certain neuroligands induces increase in intracellular calcium concentrations. In this series of experiments, we investigated Ca^2+-responses in cultured D54-MG glioma cells, after addition of acetylcholine (ACh), ATP or BK. Glioma cells were loaded with the ratiometric Ca^2+-dye FURA2-AM, and imaged over 30 min.
# D54-MG-GFP cells = test: time-lapse motility assay in BK concentration gradient, D54-MG-GFP; type: cell-based, human; details: for cells moved towards increasing BK concentration: BK gradient in presence of antagonist, cells moving in random fashion; for directionality of movement: antagonist in addition to BK
# Experimental: Time-lapse studies were performed using a stably transfected daughter cell line from D54-MG cells that express EGFP, previously generated in the lab (Habela et al., 2009) and U251-EGFP cell line to visualize cells as they migrate. Increased motility was tested using an Ibidi chemotaxis chamber that is commercially available from Ibidi Scientific (Ibidi GmbH, Martinsried, Germany), and which has been used in previous studies (Kronlage et al., 2010; Fabian et al., 2010) with D54-EGFP MG cells seeded. Liquid chemical gradients were established in the μ-channel of the μ-chamber as follows: the dye Patent Blue V Blue Sodium Salt (1 mg/ml in medium) was mixed with equivolume of medium+/−1 mM stock of BK+/−1 mM stocks of HOE-140 or BZ; half of the volume was loaded in the well at one side of the μ-channel, and the identical volume was then aspirated from the well on the other side of the μ-channel. This created concentration gradient easily visualized by the dye. 12-15 different positions along the concentration gradient were imaged every 5 minutes over 5 hours period on a Zeiss Axiovert 200M system equipped with a Zeiss micro-incubation chamber that maintains cells at constant temperature (37° C.) and 95%/5% CO2/O2 for extended periods of time. We obtained images from different sections using 20× objective and FITC filter, along with DIC images. 500× neutral density filters and capture images using Axiovision software and a digital Axiocam HR 1 megapixel camera in 2*2 binning mode was used. Data was analyzed using the imaging tools provided by National Institutes of Health Image J and Tracking, and Chemotaxis and Migration Tool plugins (Jacobelli et al., 2009; Coller et al., 2009; Kronlage et al., 2010; Fabian et al., 2010) by randomly selecting 15 cells for each field of view. Cells treated with BK+/−antagonists were compared with controls where only dye was added. These experiments were repeated in triplicates.
# As calcium dynamics are often correlated with cell motility time-lapse studies were performed using a stably transfected daughter cell line from D54-MG cells that expresses GFP to visualize cells as they migrate (FIG. 3A). Increased motility was tested in μ-slides in which a BK concentration gradient can be maintained.
# D54-MG-GFP glioma cells = test: Transwell migration assay; type: cell-based, human; details: antagonist 1 μM with BK, 5 h
# Experimental: The day before the experiment was performed, ˜70% confluent dishes of cells were prepared. Transwell migration Fluoroblock cell culture inserts (BD Biosciences, San Jose, Calif.) with 8 μm pores were coated overnight with Vitronectin (BD Biosciences, San Jose, Calif.) at a concentration of 5 μg/ml in PBS. The following day, inserts were blocked with 1% fatty acid-free bovine serum albumin for 1 h. Inserts were then washed two times in PBS, and 400 μl of Migration Assay Buffer (MAB, 0.1% fatty acid-free bovine serum albumin in serum-free media) was added to the bottom of each well. Cells were rinsed once in PBS and were lifted off the dish by the addition of 0.5 mm EGTA. Cells were rinsed twice by centrifugation and resuspended in MAB and counted. Forty thousand cells were plated on the top of each filter and allowed to adhere for 30 min before drug was added. When BK+/−antagonists was added to the filters, it was added only to the bottom of the filter for chemotaxis. For migration assay, D54-EGFP MG cells were allowed to migrate for 5 hours, washed with PBS, fixed with 4% paraformaldehyde 15 minutes at room temperature, washed thrice and counterstained with DAPI for 5 minutes at room temperature. Invasion assay was performed similarly. Matrigel cell cultured inserts (BD Biosciences, San Jose, Calif.) with 8 μm pores were pretreated Vitronectin and blocked as described above. […] The number of nuclei that migrated through pores was counted. All counts per treatment were averaged and SE values were calculated. […]
# To investigate the hypothesis that BK promotes glioma migration in vitro, we used Transwell migration assay which conveniently permit examination of cell migration across a membrane barrier with 8 μm pores towards vitronectin, a chemo-attractant extracellular matrix protein. This frequently used assay allows a quantitative study of drug effects with regards to drugs acting as motogens or as chemo-attractants. […]
SMILES,cells responded / cells imaged (B2R),average peak of Ca2+ response (B2R),cells moved towards increasing BK concentration (D54-MG-GFP cells),directionality of movement (D54-MG-GFP cells),BK-induced increase in cells migrating through the pores (D54-MG-GFP glioma cells)
CN(C)CCN(C)CCNC(=O)[C@@H]1CCCN1S(=O)(=O)c1ccc(NNC(=S)NC(c2ccccc2)c2ccccc2)c([N+](=O)[O-])c1 [Bradyzide],156/300,0.15±0.02,6/15,failed to show any directionality of movement,eliminated
"N=C(N)NCCCC(NC(=O)[C@H](N)CCCNC(=N)N)C(=O)N1CCC[C@H]1C(=O)N1C[C@H](O)C[C@H]1C(=O)NCC(=O)N[C@@H](Cc1cccs1)C(=O)N[C@@H](CO)C(=O)N1Cc2ccccc2C[C@@H]1C(=O)N1C2CCCCC2C[C@H]1C(=O)N[C@H](CCCNC(=N)N)C(=O)O (stereo partly drawn) [HOE-140, D-Arg-[Hyp^3, Thi^5, D-Tic^7, Oic^8]bradykinin]",22/162,0.15±0.01,8/15,failed to show any directionality of movement,eliminated
